Data as given in patent publication US8747810B2, “Compositions and methods for imaging tissues, organs and tumors” (President and Fellows of Harvard College, priority 2009, dated 2014).
Like-named read-outs stand apart in the source and are kept apart here. Blank lines part the entries; values can stand above or below the compound they belong to.

Tests used:
[1] = system: B16 melanoma nodules; assay: In vivo biodistribution and tumor uptake of 99mTc complexes in C57B16 mice with B16 melanoma nodules; conditions: for mel/blood: melanoma/blood ratio; for mel/liver: melanoma/liver ratio; for mel/lung: melanoma/lung ratio; for mel/spleen: melanoma/spleen ratio
Protocol: The biodistribution data including melanoma/nontumor (M/NT) ratios for selected organs, summarized in Table 1 as percentage injected dose per gram (% ID/g)
To study the tumor uptake of radiolabeled metal complexes, in vivo, biodistribution experiments at 1 h after their administration were carried out in C57B16 male mice with palpable B16 melanoma nodules.

[2] = target: T1, σ1 receptor (Cavia porcellus, UniProt Q60492); assay: σ1 receptor competition binding assay, [3H]-(+)-pentazocine; set-up: species or system guinea pig
T1 construct: The membranes were prepared from guinea pig brain (minus cerebellum) as described above; from tissue; host or cells: guinea pig brain (minus cerebellum) membranes
Protocol: […] See, Mol. Neuropharmacol. 1993, 3, 117-126.
The membranes were prepared from guinea pig brain (minus cerebellum) as described above and stored at −70° C. Twelve concentrations of the nonradioactive rhenium complexes ranging from 1×10^−11 to 1×10^−3 and protein samples (0.15 mg of membrane protein) were incubated with 5 nM [^3H]-(+)-pentazocine in a total volume of 0.25 mL of Tris-HCl (50 mM, pH 8.0). Incubations were carried out for 120 min at 25° C. All assays were terminated by dilution with 5 mL of ice-cold Tris-HCl (10 mM), pH 8.0, and solution were filtered through glass-fiber filters (Whatman GF/F; presoaked in 0.5% polyethyleneimine for 30 min at 25° C.). Filters were then washed three times with 5 mL of ice-cold Tris-HCl (50 mM, pH 8.0), and counted in Hionic-Fluor cocktail (Packard, Groningen, the Netherlands). The corresponding IC50 values were determined with Origin 6.0 software (OriginLab, Northampton, Mass.) and were used for the calculation of the apparent Ki values with the Cheng-Prusoff equation. See, Biochem. Pharmacol. 1973, 22, 3099-3108.

[3] = target: T2, σ2 receptor (Rattus norvegicus, UniProt Q5U3Y7); assay: σ2 receptor competition binding assay, [3H]-DTG, rat liver membranes
T2 construct: Rat liver membranes were prepared from male Sprague-Dawley rat livers as previously described; from tissue; host or cells: rat (Sprague-Dawley) liver membranes
T2 sequence (Q5U3Y7 1-176): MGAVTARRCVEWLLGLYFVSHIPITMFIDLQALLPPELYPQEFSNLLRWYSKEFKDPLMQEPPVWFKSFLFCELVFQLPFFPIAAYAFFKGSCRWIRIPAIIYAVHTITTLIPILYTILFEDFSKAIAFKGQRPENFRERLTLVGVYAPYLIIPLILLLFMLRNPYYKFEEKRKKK
Protocol: Rat liver membranes were prepared from male Sprague-Dawley rat livers as previously described (Eur. J. Pharmacol.-Mol. Pharmacol. Sect. 1994, 268, 9-18). The in vitro σ2 receptor binding affinities of rhenium coordinated complexes were determined in a competition assay using rat livers and [^3H]-DTG (31 Ci/mmol, NEN Life Science Inc., Cambridge, Mass.) as radioligand in the presence of 10 μM 1-pyrrolidinylethyl 3,4-dichlorophenylacetate oxalate (ACT915 oxalate) to mask σ1 receptors (Bioorg. & Med. Chem. Lett. 2000, 10, 17-18). Competition assays were performed with twelve concentrations of the nonradioactive rhenium complexes ranging from […] to 1×10^−3 and protein samples (0.15 mg of membrane protein) in a total volume of 0.25 mL of Tris-HCl (50 mM, pH 8.0) for 120 min at 25° C. All other manipulations and data analysis were performed as described vide supra for the σ1—receptor assays.

[4] = target: T3, 5HT1A receptor (Rattus norvegicus, UniProt P19327); assay: 5HT1A receptor competition binding assay, [3H]-8-OH-DPAT, rat hippocampus; conditions: quantity not named in table head; methods calculate apparent Ki (Cheng-Prusoff); read-out: 5HT1A
T3 construct: hippocampal homogenates that were prepared from Sprague Dawley rat hippocampus; from tissue; host or cells: rat (Sprague-Dawley) hippocampus membranes
T3 sequence (P19327 1-422): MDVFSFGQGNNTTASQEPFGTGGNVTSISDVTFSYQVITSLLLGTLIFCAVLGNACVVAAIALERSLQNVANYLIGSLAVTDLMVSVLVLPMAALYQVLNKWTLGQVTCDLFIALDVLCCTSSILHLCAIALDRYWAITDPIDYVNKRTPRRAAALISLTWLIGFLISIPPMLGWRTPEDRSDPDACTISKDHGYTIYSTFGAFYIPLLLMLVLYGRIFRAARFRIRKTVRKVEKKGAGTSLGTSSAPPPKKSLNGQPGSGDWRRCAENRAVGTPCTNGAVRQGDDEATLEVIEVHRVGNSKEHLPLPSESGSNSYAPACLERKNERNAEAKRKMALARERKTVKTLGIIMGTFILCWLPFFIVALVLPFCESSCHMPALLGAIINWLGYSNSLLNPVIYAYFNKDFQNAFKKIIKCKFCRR
Protocol: The in vitro 5HT1A binding affinities of rhenium coordinated complexes were determined in a competition assay using rat hippocampus and high-affinity 5HT1A-ligand [^3H]-8-OH-DPAT (135 Ci/mmol, NEN Life Science Inc., Cambridge, Mass.). See, Brain Res. 1995, 673, 217-225.
Male Sprague-Dawley rats (weighing 150-170 g) were sacrificed using anesthesia agent isoflurane. The brains were rapidly removed, and hippocampus, frontal cortex, hypothalamus, and striatum were hand-dissected on ice and stored at −70° C. Tissue was thawed at room temperature and homogenized using a Brinkmann Polytron tissue disrupter in 50 volumes (wt/vol) of ice-cold 50 mM Tris-HCl buffer (pH 7.4). The suspension was centrifuged twice at 27,000 g for 20 min at 4° C. The membrane pellets were resuspended in 50 volumes of (wt/vol) Tris-HCl buffer and incubated at 37° C. for 20 min in a water bath, before a final centrifugation step (27,000 g; 20 min; 4° C.). The final tissue pellets were stored at −70° C. until assayed.
Twelve concentrations of the nonradioactive rhenium complexes ranging from 1×10^−11 to 1×10^−4 and protein samples (0.15 mg of membrane protein) were incubated with 1.5 nM [^3H]-8-OH-DPAT in a total volume of 0.25 mL of Tris-HCl (50 mM, pH 7.4, 10 mM MgSO4). Incubations were carried out for 60 min at 25° C. All assays were terminated by dilution with 5 mL of ice-cold Tris-HCl (10 mM), pH 7.4, and solution were filtered through glass-fiber filters (Whatman GF/F; presoaked in 0.5% polyethyleneimine for 30 min at 25° C.). Filters were then washed three times with 5 mL of ice-cold Tris-HCl (50 mM, pH 7.4), and counted in Hionic-Fluor cocktail (Packard, Groningen, the Netherlands). The corresponding IC50 values were determined with Origin 6.0 software (OriginLab, Northampton, Mass.) and were used for the calculation of the apparent Ki values with the Cheng-Prusoff equation. See, Biochem. Pharmacol. 1973, 22, 3099-3108.
Rhenium complexes were synthesized by the reaction of [ReBr(CO)3(C4H8O)]2 with the final ligands in acetonitrile at room temperature. The in vitro 5-HT1A binding affinities of complexes Re(CO)3-L1-L9 were determined in competitive receptor binding assay using hippocampal homogenates that were prepared from Sprague Dawley rat hippocampus and the high-affinity [^3H]-8-OH-DPAT as the 5HT1A specific ligand.
The in vitro affinity of Re(CO)3-L complexes for the 5-HT1A receptors were assessed by their ability to compete with the high affinity 5HT1A radioligand [^3H]-8-OH-DPAT.

[5] = quantity not named in table head, methods calculate apparent Ki (Cheng-Prusoff), read-out: σ-1
[6] = quantity not named in table head, methods calculate apparent Ki (Cheng-Prusoff), read-out: σ-2

T1 sequence (Q60492 whole entry): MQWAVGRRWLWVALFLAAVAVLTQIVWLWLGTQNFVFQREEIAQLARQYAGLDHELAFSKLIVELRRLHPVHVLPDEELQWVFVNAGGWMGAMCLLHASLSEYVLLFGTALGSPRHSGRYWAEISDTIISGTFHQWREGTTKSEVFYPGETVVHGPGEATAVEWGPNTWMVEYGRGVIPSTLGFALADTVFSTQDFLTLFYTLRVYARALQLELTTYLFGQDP

blood ([1]; 1 h postinjection): 1.00 ± 0.46 % ID/g
brain ([1]; 1 h postinjection): 0.30 ± 0.10 % ID/g
heart ([1]; 1 h postinjection): 0.82 ± 0.37 % ID/g
kidney ([1]; 1 h postinjection): 5.53 ± 0.81 % ID/g
liver ([1]; 1 h postinjection): 12.7 ± 1.54 % ID/g
lung ([1]; 1 h postinjection): 1.40 ± 0.49 % ID/g
melanoma (tumor uptake) ([1]; 1 h postinjection): 7.62 ± 0.62 % ID/g
muscle ([1]; 1 h postinjection): 0.35 ± 0.21 % ID/g
spleen ([1]; 1 h postinjection): 1.83 ± 0.55 % ID/g
mel/blood ([1]; 1 h postinjection): 7.6 ± 0.54
mel/liver ([1]; 1 h postinjection): 0.6 ± 0.09
mel/lung ([1]; 1 h postinjection): 5.4 ± 0.60
mel/spleen ([1]; 1 h postinjection): 4.2 ± 0.58
blood ([1]; 6 h postinjection): 0.32 ± 0.19 % ID/g
brain ([1]; 6 h postinjection): 0.05 ± 0.02 % ID/g
heart ([1]; 6 h postinjection): 0.11 ± 0.02 % ID/g
kidney ([1]; 6 h postinjection): 1.98 ± 0.21 % ID/g
liver ([1]; 6 h postinjection): 4.08 ± 0.92 % ID/g
lung ([1]; 6 h postinjection): 0.47 ± 0.21 % ID/g
melanoma (tumor uptake) ([1]; 6 h postinjection): 3.45 ± 1.2 % ID/g
muscle ([1]; 6 h postinjection): 0.08 ± 0.01 % ID/g
spleen ([1]; 6 h postinjection): 0.34 ± 0.10 % ID/g
mel/blood ([1]; 6 h postinjection): 10.8 ± 1.00
mel/liver ([1]; 6 h postinjection): 0.9 ± 0.35
mel/lung ([1]; 6 h postinjection): 7.3 ± 0.98
mel/spleen ([1]; 6 h postinjection): 10.1 ± 1.11
SMILES: CCN(CC)CC[N+]12CC[S][99Tc-]13(=[O])[S]CC[N]3C(=O)C2 (centres unmarked) [[TcOAADT]-C2—N(Et)2, [^99mTcOAADT]-(CH2)2—N(Et2), reference compound]
tumor uptake and retention (in words) ([1]; over time): significant washout from the tumor over time

Ki [2, 5]: 5310 ± 973 nM
Ki [3, 6]: 35.6 ± 2.83 nM
SMILES: COc1cc2c(cc1OC)CN(CCCCCC[N+]13Cc4ccccc4[O][Re-2]1(=[C]=O)(=[C]=O)(=[C]=O)[n+]1ccccc1C3)C2 (centres unmarked) [Re-L13]

Ki [4]: 26 ± 2.71 nM
SMILES: CCCN(CCCCCCN1CC[S][Re]2(=[O])[S]CC[N]2C(=O)C1)C1CCc2c(O)cccc2C1 (centres unmarked) [Re-47 HO]

Ki [4]: 120 ± 21 nM
SMILES: COc1ccccc1C1CCN(CCCCCC[N+]23Cc4ccccc4[O][Re-2]2(=[C]=O)(=[C]=O)(=[C]=O)[n+]2ccccc2C3)CC1 (centres unmarked) [Re-L11]

Ki [4]: 940 ± 216 nM
Ki [2, 5]: 4400 ± 280 nM
Ki [3, 6]: 3.37 nM
SMILES: COc1cc2c(cc1OC)CN(CCCCCC[N+]13Cc4ccccc4[O][Re-2]1(=[C]=O)(=[C]=O)(=[C]=O)[n+]1ccccc1C3)CC2 (centres unmarked) [Re-L12]

Ki [2, 5]: 672 ± 17.6 nM
Ki [3, 6]: 12.1 ± 0.61 nM
SMILES: COc1cc2c(cc1OC)CN(CCCCCCN1CC[S][Re]3(=[O])[S]CC[N]3C(=O)C1)CC2 (centres unmarked) [Re-42]

Ki [4]: 81.4 ± 5.24 nM
SMILES: CCCN(CCCN1CC[S][Re]2(=[O])[S]CC[N]2C(=O)C1)C1CCc2c(O)cccc2C1 (centres unmarked) [Re-46 HO]

Ki [4]: 91.3 ± 4.1 nM
SMILES: CCCN(CCCN1CC[S][Re]2(=[O])[S]CC[N]2C(=O)C1)C1CCc2c(cccc2OC)C1 (centres unmarked) [Re-46]

SMILES: O=C1C[N+]2(CCCCCCCN3CCC(c4ccccc4)CC3)CC[S][Re-]23(=[O])[S]CC[N]13 (centres unmarked) [Re-41]
Ki [2]: 7.6 ± 0.67 nM
Ki [3]: 21.25 ± 0.19 nM

Ki [4]: 48 ± 5 nM
SMILES: COc1ccccc1C1CCN(CCCCCC[N+]23CC[NH2+][Re-2]2(=[C]=O)(=[C]=O)(=[C]=O)[O]c2ccccc2C3)CC1 (centres unmarked) [Re-L17a]

Ki [4]: 629 ± 12 nM
Ki [2, 5]: 39.3 ± 1.43 nM
Ki [3, 6]: 223 ± 8.78 nM
SMILES: O=[C]=[Re-2]12(=[C]=O)(=[C]=O)[NH2+]CC[N+]1(CCCCCCN1CCC(c3ccccc3)CC1)Cc1ccccc1[O]2 (centres unmarked) [Re-L16a]
